Patent US20070128217A1 (priority 2003, published 2007)

How the values were obtained:
[1] = tested on: control sera (pooled serum of ten healthy LUMC hospital workers; commercial negative donor pooled serum from the Dutch bloodbank); assay type: binding, human; design: Binding of Control serum LUMC to linear peptides / Binding of Control serum Blood-bank to linear peptides / Binding of Control serum LUMC to looped peptides / Binding of Control Serum Blood-Bank to Looped peptides / Binding of Control serum LUMC to linear peptides of the protein M of SARS-CoV Urbani / Binding of Control serum Blood-bank to linear peptides of the protein M of SARS-CoV Urbani / Binding of Control serum LUMC to looped peptides of the protein M of SARS-CoV Urbani / Binding of Control Serum Blood-Bank to Looped peptides of the protein M of SARS-CoV Urbani: unit not given here
[2] = tested on: antibodies in sera from SARS patients (sera 1a, 1b, 2, 6, 37, 62, London, SARS-yellow, SARS-green); assay type: binding, human; design: Binding of serum 6 to linear peptides of protein X1 of SARS-CoV Urbani / Binding of serum 37 to linear peptides of protein X1 of SARS-CoV Urbani / Binding of serum 6 to looped/cyclic peptide (PEPSCAN-ELISA) / Binding of serum 37 to looped/cyclic peptide (PEPSCAN-ELISA) / Binding of serum 37 to looped/cyclic peptides of protein X1 of SARS-CoV Urbani / Binding of serum 6 to linear peptides of protein X2 / Binding of serum 37 to linear peptides of protein X2 / Binding of serum 37 to looped/cyclic peptides of protein X2 of SARS-CoV Urbani / Binding of serum 6 to linear peptides of protein M of SARS-CoV Urbani / Binding of serum 37 to linear peptides of protein M of SARS-CoV Urbani / Binding of serum 6 to looped/cyclic peptides of protein M of SARS-CoV Urbani / Binding of serum 37 to looped/cyclic peptides of protein M of SARS-CoV Urbani / Binding of serum 6 to linear peptides of protein X3 of SARS-CoV Urbani / Binding of serum 37 to linear peptides of protein X3 of SARS-CoV Urbani / Binding of serum 37 to looped/cyclic peptides of protein X3 of SARS-CoV Urbani / Binding of serum 6 to linear peptides of protein X4 of SARS-CoV Urbani / Binding of serum 37 to linear peptides of protein X4 of SARS-CoV Urbani / Binding of serum 37 to looped/cyclic peptides of protein X4 of SARS-CoV Urbani / Binding of serum 6 to linear peptides of protein X5 of SARS-CoV Urbani / Binding of serum 37 to linear peptides of protein X5 of SARS-CoV Urbani / Binding of serum 37 to looped/cyclic peptides of protein X5 of SARS-CoV Urbani / Binding of serum 6 to linear peptides of protein N of SARS-CoV Urbani / Binding of serum 37 to linear peptides of protein N of SARS-CoV Urbani / Binding of serum 6 to linear peptide (PEPSCAN-ELISA) / Binding of serum 1a to looped/cyclic peptides of protein N of SARS-CoV Urbani / Binding of serum 1b to looped/cyclic peptides of protein N of SARS-CoV Urbani / Binding of serum 2 to looped/cyclic peptides of protein N of SARS-CoV Urbani / Binding of serum 6 to looped/cyclic peptides of protein N of SARS-CoV Urbani / Binding of serum 37 to looped/cyclic peptides of protein N of SARS-CoV Urbani / Binding of serum 62 to looped/cyclic peptides of protein N of SARS-CoV Urbani / Binding of serum London to looped/cyclic peptides of protein N of SARS-CoV Urbani / Binding of serum SARS-green to looped/cyclic peptides of protein N of SARS-CoV Urbani: unit not given here
[3] = tested on: rabbit serum obtained by immunizing a rabbit with the SARS-CoV strain Frankfurt 1; assay type: binding; design: Binding of a rabbit serum to linear peptides / Binding of a rabbit serum to looped peptides / Rabbit serum linear peptides / Rabbit serum looped peptides / Binding of a rabbit serum to linear peptides of protein N of SARS-CoV Urbani (Rabbit serum linear peptides) / Binding of a rabbit serum to looped/cyclic peptides of protein N of SARS-CoV Urbani (Rabbit serum looped peptides): unit not given here

YYQLESTQITTDTGI
Binding of Control Serum Blood-Bank to Looped peptides [1]: 0.4 | Binding of Control serum Blood-bank to linear peptides [1]: 0.4 | Binding of Control serum LUMC to linear peptides [1]: 0.5 | Binding of Control serum LUMC to looped peptides [1]: 0.4 | Binding of serum 1a to linear peptides of protein X1 of SARS-CoV Urbani [2]: 0.7 | Binding of serum 1a to looped/cyclic peptides of protein X1 of SARS-CoV Urbani [2]: 0.4 | Binding of serum 1b to linear peptides of protein X1 of SARS-CoV Urbani [2]: 0.7 | Binding of serum 1b to looped/cyclic peptides of protein X1 of SARS-CoV Urbani [2]: 0.3 | Binding of serum 2 to linear peptides of protein X1 of SARS-CoV Urbani [2]: 0.4 | Binding of serum 2 to looped/cyclic peptides of protein X1 of SARS-CoV Urbani [2]: 0.2 | Binding of serum 6 to linear peptides of protein X1 of SARS-CoV Urbani [2]: 0.5 | Binding of serum 6 to looped/cyclic peptides of protein X1 of SARS-CoV Urbani [2]: 0.2 | Binding of serum 37 to linear peptides of protein X1 of SARS-CoV Urbani [2]: 0.7 | Binding of serum 37 to looped/cyclic peptides of protein X1 of SARS-CoV Urbani [2]: 0.5 | Binding of serum 62 to linear peptides of protein X1 of SARS-CoV Urbani [2]: 0.5 | Binding of serum 62 to looped/cyclic peptides of protein X1 of SARS-CoV Urbani [2]: 0.4 | Binding of serum London to linear peptides of protein X1 of SARS-CoV Urbani [2]: 0.2 | Binding of serum London to looped/cyclic peptides of protein X1 of SARS-CoV Urbani [2]: 0.2 | Binding of serum SARS-green to linear peptides of protein X1 of SARS-CoV Urbani [2]: 0.2 | Binding of serum SARS-green to looped/cyclic peptides of protein X1 of SARS-CoV Urbani [2]: 0.3 | Binding of serum SARS-yellow to linear peptides of protein X1 of SARS-CoV Urbani [2]: 0.3 | Binding of serum SARS-yellow to looped/cyclic peptides of protein X1 of SARS-CoV Urbani [2]: 0.3 | Binding of a rabbit serum to linear peptides [3]: 0.1 | Binding of a rabbit serum to looped peptides [3]: 0.6

TSCELYHYQECVRGT
Binding of Control Serum Blood-Bank to Looped peptides [1]: 0.8 | Binding of Control serum Blood-bank to linear peptides [1]: 0.6 | Binding of Control serum LUMC to linear peptides [1]: 0.6 | Binding of Control serum LUMC to looped peptides [1]: 0.8 | Binding of serum 1a to linear peptides of protein X4 of SARS-CoV Urbani [2]: 0.7 | Binding of serum 1a to looped/cyclic peptides of protein X4 of SARS-CoV Urbani [2]: 0.9 | Binding of serum 1b to linear peptides of protein X4 of SARS-CoV Urbani [2]: 0.6 | Binding of serum 1b to looped/cyclic peptides of protein X4 of SARS-CoV Urbani [2]: 0.9 | Binding of serum 2 to linear peptides of protein X4 of SARS-CoV Urbani [2]: 0.3 | Binding of serum 2 to looped/cyclic peptides of protein X4 of SARS-CoV Urbani [2]: 0.7 | Binding of serum 6 to linear peptides of protein X4 of SARS-CoV Urbani [2]: 0.7 | Binding of serum 6 to looped/cyclic peptides of protein X4 of SARS-CoV Urbani [2]: 0.9 | Binding of serum 37 to linear peptides of protein X4 of SARS-CoV Urbani [2]: 0.7 | Binding of serum 37 to looped/cyclic peptides of protein X4 of SARS-CoV Urbani [2]: 0.7 | Binding of serum 62 to linear peptides of protein X4 of SARS-CoV Urbani [2]: 0.8 | Binding of serum 62 to looped/cyclic peptides of protein X4 of SARS-CoV Urbani [2]: 0.7 | Binding of serum London to linear peptides of protein X4 of SARS-CoV Urbani [2]: 0.7 | Binding of serum London to looped/cyclic peptides of protein X4 of SARS-CoV Urbani [2]: 0.4 | Binding of serum SARS-green to linear peptides of protein X4 of SARS-CoV Urbani [2]: 0.5 | Binding of serum SARS-green to looped/cyclic peptides of protein X4 of SARS-CoV Urbani [2]: 0.7 | Binding of serum SARS-yellow to linear peptides of protein X4 of SARS-CoV Urbani [2]: 0.3 | Binding of serum SARS-yellow to looped/cyclic peptides of protein X4 of SARS-CoV Urbani [2]: 0.4 | Rabbit serum linear peptides [3]: 0.4 | Rabbit serum looped peptides [3]: 0.2

LCWKCKSKNPLLYDA
Binding of Control Serum Blood-Bank to Looped peptides [1]: 0.8 | Binding of Control serum Blood-bank to linear peptides [1]: 0.7 | Binding of Control serum LUMC to linear peptides [1]: 0.7 | Binding of Control serum LUMC to looped peptides [1]: 0.8 | Binding of serum 1a to looped/cyclic peptide (PEPSCAN-ELISA) [2]: 0.8 | Binding of serum 1b to looped/cyclic peptide (PEPSCAN-ELISA) [2]: 0.5 | Binding of serum 2 to looped/cyclic peptide (PEPSCAN-ELISA) [2]: 0.7 | Binding of serum 6 to looped/cyclic peptide (PEPSCAN-ELISA) [2]: 0.8 | Binding of serum 37 to looped/cyclic peptide (PEPSCAN-ELISA) [2]: 0.7 | Binding of serum 62 to looped/cyclic peptide (PEPSCAN-ELISA) [2]: 0.8 | Binding of serum London to looped/cyclic peptide (PEPSCAN-ELISA) [2]: 0.3 | Binding of serum SARS-green to looped/cyclic peptide (PEPSCAN-ELISA) [2]: 0.3 | Binding of serum SARS-yellow to looped/cyclic peptide (PEPSCAN-ELISA) [2]: 0.7 | Recognition of the peptide by sera of SARS-CoV infected individuals, and form (linear, looped/cyclic) in which it is recognized [2]: recognized in linear form | Binding of a rabbit serum to linear peptides [3]: 0.3 | Binding of a rabbit serum to looped peptides [3]: 0.8

TIAEILIIIMRTFRI
Binding of Control Serum Blood-Bank to Looped peptides of the protein X3 of SARS-CoV Urbani [1]: 1.1 | Binding of Control serum Blood-bank to linear peptides of the protein X3 of SARS-CoV Urbani [1]: 0.8 | Binding of Control serum LUMC to linear peptides of the protein X3 of SARS-CoV Urbani [1]: 0.6 | Binding of Control serum LUMC to looped peptides of the protein X3 of SARS-CoV Urbani [1]: 0.7 | Binding of serum 1a to linear peptides of protein X3 of SARS-CoV Urbani [2]: 0.8 | Binding of serum 1a to looped/cyclic peptides of protein X3 of SARS-CoV Urbani [2]: 0.7 | Binding of serum 1b to linear peptides of protein X3 of SARS-CoV Urbani [2]: 0.3 | Binding of serum 1b to looped/cyclic peptides of protein X3 of SARS-CoV Urbani [2]: 0.4 | Binding of serum 2 to linear peptides of protein X3 of SARS-CoV Urbani [2]: 0.7 | Binding of serum 2 to looped/cyclic peptides of protein X3 of SARS-CoV Urbani [2]: 0.6 | Binding of serum 6 to linear peptides of protein X3 of SARS-CoV Urbani [2]: 0.7 | Binding of serum 6 to looped/cyclic peptides of protein X3 of SARS-CoV Urbani [2]: 0.4 | Binding of serum 37 to linear peptides of protein X3 of SARS-CoV Urbani [2]: 0.6 | Binding of serum 37 to looped/cyclic peptides of protein X3 of SARS-CoV Urbani [2]: 0.3 | Binding of serum 62 to linear peptides of protein X3 of SARS-CoV Urbani [2]: 0.7 | Binding of serum 62 to looped/cyclic peptides of protein X3 of SARS-CoV Urbani [2]: 0.4 | Binding of serum London to linear peptides of protein X3 of SARS-CoV Urbani [2]: 0.7 | Binding of serum London to looped/cyclic peptides of protein X3 of SARS-CoV Urbani [2]: 0.2 | Binding of serum SARS-green to linear peptides of protein X3 of SARS-CoV Urbani [2]: 0.3 | Binding of serum SARS-green to looped/cyclic peptides of protein X3 of SARS-CoV Urbani [2]: 0.4 | Binding of serum SARS-yellow to linear peptides of protein X3 of SARS-CoV Urbani [2]: 0.3 | Binding of serum SARS-yellow to looped/cyclic peptides of protein X3 of SARS-CoV Urbani [2]: 0.5 | Rabbit serum linear peptides [3]: 0.2 | Rabbit serum looped peptides [3]: 0.0

YFTEVYYQLESTQIT
Binding of Control Serum Blood-Bank to Looped peptides [1]: 0.4 | Binding of Control serum Blood-bank to linear peptides [1]: 0.4 | Binding of Control serum LUMC to linear peptides [1]: 0.4 | Binding of Control serum LUMC to looped peptides [1]: 0.5 | Binding of serum 1a to linear peptides of protein X1 of SARS-CoV Urbani [2]: 0.7 | Binding of serum 1a to looped/cyclic peptides of protein X1 of SARS-CoV Urbani [2]: 0.5 | Binding of serum 1b to linear peptides of protein X1 of SARS-CoV Urbani [2]: 0.6 | Binding of serum 1b to looped/cyclic peptides of protein X1 of SARS-CoV Urbani [2]: 0.5 | Binding of serum 2 to linear peptides of protein X1 of SARS-CoV Urbani [2]: 0.4 | Binding of serum 2 to looped/cyclic peptides of protein X1 of SARS-CoV Urbani [2]: 0.3 | Binding of serum 6 to linear peptides of protein X1 of SARS-CoV Urbani [2]: 0.4 | Binding of serum 6 to looped/cyclic peptides of protein X1 of SARS-CoV Urbani [2]: 0.2 | Binding of serum 37 to linear peptides of protein X1 of SARS-CoV Urbani [2]: 0.6 | Binding of serum 37 to looped/cyclic peptides of protein X1 of SARS-CoV Urbani [2]: 0.4 | Binding of serum 62 to linear peptides of protein X1 of SARS-CoV Urbani [2]: 0.6 | Binding of serum 62 to looped/cyclic peptides of protein X1 of SARS-CoV Urbani [2]: 0.4 | Binding of serum London to linear peptides of protein X1 of SARS-CoV Urbani [2]: 0.3 | Binding of serum London to looped/cyclic peptides of protein X1 of SARS-CoV Urbani [2]: 0.2 | Binding of serum SARS-green to linear peptides of protein X1 of SARS-CoV Urbani [2]: 0.3 | Binding of serum SARS-green to looped/cyclic peptides of protein X1 of SARS-CoV Urbani [2]: 0.2 | Binding of serum SARS-yellow to linear peptides of protein X1 of SARS-CoV Urbani [2]: 0.3 | Binding of serum SARS-yellow to looped/cyclic peptides of protein X1 of SARS-CoV Urbani [2]: 0.3 | Binding of a rabbit serum to linear peptides [3]: 0.1 | Binding of a rabbit serum to looped peptides [3]: 0.4
